Legend:
Format in all cases: biochemical
[1] = target: T1, subtilisin (Savinase 16L) (Lederbergia lenta, UniProt P29600); experiment: Remaining protease activity of Savinase 16L after storage in the Table 1 detergent (hydrolysis of N,N-dimethylcasein); details: one week at 40° C.
T1 construct: purchased Novozymes A/S Savinase 16L
T1 sequence (P29600 1-269): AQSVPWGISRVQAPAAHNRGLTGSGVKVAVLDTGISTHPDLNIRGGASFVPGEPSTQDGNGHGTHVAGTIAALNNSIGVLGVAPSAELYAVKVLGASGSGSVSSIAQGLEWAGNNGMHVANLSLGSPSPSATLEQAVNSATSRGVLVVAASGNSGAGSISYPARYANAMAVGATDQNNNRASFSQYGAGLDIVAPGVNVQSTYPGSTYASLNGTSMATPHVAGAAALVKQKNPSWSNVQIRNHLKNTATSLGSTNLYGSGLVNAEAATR
Protocol: (§1) General experimental details: Detergents with a subtilisin (Savinase 16L) and a lipase (Lipex 100L) with or without X—B^1—NH—CHR—CHOH—SO3Na (the peptide aldehyde hydrosulfite adduct can be added separately to the detergent containing the subtilisin) are placed in closed glasses at −18° C.; 35° C. and 40° C. Residual activities of protease and lipase are measured after different times using standard analytical methods (protease by hydrolysis of N,N-dimethylcasein at 40° C., pH 8.3 and lipase by hydrolysis of pNp-valerate at 40° C., pH 7.7). Similar trials can be made with addition of subtilisin to a detergent already containing suitable amounts of the peptide aldehyde hydrosulfite adduct. Similar results can be obtained with all the mentioned peptide aldehyde bisulfite adducts.
As an example of detergent composition with a stabilized subtilisin formulation, the composition described in Table 1 was made.
In Table 2 are shown the results obtained with X=Cbz-Gly; B^1=Ala; R═—CH2-p(C6H4)—OH; stability measured after one week incubation at 40° C. in the detergent described in Table 1.

Lipase: Lipex 100L = experiment: Remaining lipase activity after storage with subtilisin in the Table 3 detergent (hydrolysis of pNp-valerate); details: 2 weeks at 35° C.
Protocol: as §1
(§2) As an example of a detergent composition with a stabilized subtilisin formulation, the composition described in Table 3 was made.
(§3) In Table 4 are shown the results measured after two weeks incubation at 35° C. in the detergent described in Table 3.

[2] = tested on: Subtilisin Liquanase 2.5L; experiment: Remaining subtilisin activity after storage in the Table 5 detergent, Liquanase 2.5L; details: 34 ppm inhibitor in detergent of Table 5
Protocol: as §1
(§4) As yet another example of a detergent with a stabilized subtilisin formulation, the composition described in Table 5 was made.
(§5) In Table 6 are shown the results measured after 4 weeks incubation at 37° C., and after 8 weeks incubation at 30° C., in the detergent described in Table 5.

Lipase: Lipoclean 2000L = experiment: Remaining lipase activity after storage with subtilisin in the Table 5 detergent
Protocol: as §1, §4, §5

Subtilisin Coronase 48L = experiment: Remaining subtilisin activity after storage in the Table 5 detergent, Coronase 48L; details: 59 ppm inhibitor in detergent of Table 5
Protocol: as §1, §4, §5

Subtilisin: Savinase = target: T2, Subtilisin: Savinase (Lederbergia lenta, UniProt P29600); experiment: Remaining subtilisin activity after storage in the Table 3 detergent; details: 2 weeks at 35° C.
T2 construct: purchased Novozymes A/S Savinase 16L
T2 sequence (P29600 1-269): T1 sequence (P29600 1-269)
Protocol: as §1, §2, §3

| SMILES | Protease stability (remaining activity) ([1]; 7 ppm inhibitor in detergent of Table 1) [%] | Protease stability (remaining activity) ([1]; 14 ppm inhibitor in detergent of Table 1) [%] | Protease stability (remaining activity) ([1]; 18 ppm inhibitor in detergent of Table 1) [%] | Remaining activity of Lipase (Lipase: Lipex 100L; 21 ppm inhibitor in detergent of Table 3 with Savinase) [%] | Remaining activity of Subtilisin, 4 weeks at 37° C. [2] [%] | Remaining activity of Lipase, 8 weeks at 30° C. (Lipase: Lipoclean 2000L; with Coronase 48L, 59 ppm inhibitor in detergent of Table 5) [%] | Remaining activity of Lipase, 8 weeks at 30° C. (Lipase: Lipoclean 2000L; with Liquanase 2.5L, 34 ppm inhibitor in detergent of Table 5) [%] | Remaining activity of Subtilisin, 4 weeks at 37° C. (Subtilisin Coronase 48L) [%] | Remaining activity of Subtilisin (protease) (Subtilisin: Savinase; 21 ppm inhibitor in detergent of Table 3) [%] | Remaining activity of Lipase (Lipase: Lipex 100L; 128 ppm inhibitor in detergent of Table 3 with Savinase) [%] | remaining activity at 128 ppm (Subtilisin: Savinase; 128 ppm inhibitor in detergent of Table 3, read-out: Remaining activity of Subtilisin (protease)) [%] |
| --- | --- | --- | --- | --- | --- | --- | --- | --- | --- | --- | --- |
| C[C@H](NC(=O)CNC(=O)OCc1ccccc1)C(=O)N[C@@H](Cc1ccc(O)cc1)C(O)S(=O)(=O)[O-].[Na+] (some centres unmarked) [Cbz-GA-NHCH(CH2C6H4OH)C(OH)(SO3M)-H] | 52 | 77 | 80 | 18 | 83 | 61 | 27 | 80 | 63 | – | – |
| O=Cc1ccc(B(O)O)cc1 [4-formylphenyl boronic acid, reference compound] | – | – | – | – | – | – | – | – | – | 2 | 8 |

— patent publication US9085750B2, “Stabilized subtilisin composition” (Novozymes A/S, priority 2011, dated 2015)
